Data taken from ChEMBL document CHEMBL3046641, “QSAR study of some CCR5 antagonists as anti-HIV agents using radial basis function neural network and general regression neural network on the basis of principal components” (Med Chem Res, 2012).

Target: C-C chemokine receptor type 5 (Homo sapiens, UniProt P51681)
Experiment: Antagonist activity at Homo sapiens (human) CCR5 receptor

Sequence of C-C chemokine receptor type 5 (P51681 whole entry): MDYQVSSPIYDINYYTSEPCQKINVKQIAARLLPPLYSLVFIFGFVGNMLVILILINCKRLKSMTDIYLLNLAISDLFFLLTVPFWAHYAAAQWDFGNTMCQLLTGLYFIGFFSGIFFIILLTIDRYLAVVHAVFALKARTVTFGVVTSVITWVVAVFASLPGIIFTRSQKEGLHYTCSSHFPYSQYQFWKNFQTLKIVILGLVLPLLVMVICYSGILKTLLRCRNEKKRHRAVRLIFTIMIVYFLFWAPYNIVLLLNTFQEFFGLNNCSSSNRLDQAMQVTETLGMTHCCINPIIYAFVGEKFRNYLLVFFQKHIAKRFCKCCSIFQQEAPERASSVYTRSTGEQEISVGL

Row | Compound | IC50 [nM]
1 | CN(C[C@@H](CCN1CCC2(CC1)CS(=O)(=O)c1ccccc12)c1cccc(Cl)c1)S(=O)(=O)c1ccccc1 | 1000
2 | CN(C[C@@H](CCN1CCC2(CC1)C[S+]([O-])c1ccccc12)c1ccc(Cl)c(Cl)c1)S(=O)(=O)c1ccc(Cl)cc1 (stereo partly specified) | 350
3 | CN(C[C@@H](CCN1CCC(CCc2ccccc2)CC1)c1cccc(Cl)c1)S(=O)(=O)c1ccccc1 | 600
4 | CN(C[C@@H](CCN1CCC2(CC1)CSc1ccccc12)c1cccc(Cl)c1)S(=O)(=O)c1ccccc1 | 600
5 | CN(C[C@@H](CCN1CCC2(CC1)CC(O)c1ccccc12)c1cccc(Cl)c1)S(=O)(=O)c1ccccc1 (stereo partly specified) | 24000
6 | CN(C[C@@H](CCN1CCC2(CC1)CC(=O)c1ccccc12)c1cccc(Cl)c1)S(=O)(=O)c1ccccc1 | 3400
7 | CN(C)S(=O)(=O)N(C)C[C@@H](CCN1CCC2(CC1)C[S+]([O-])c1ccccc12)c1ccc(Cl)c(Cl)c1 (stereo partly specified) | 2700
8 | CN(C[C@@H](CCN1CCC2(CC1)C[S+]([O-])c1ccccc12)c1ccc(Cl)c(Cl)c1)S(=O)(=O)C1CCCC1 (stereo partly specified) | 500
9 | CN(C[C@@H](CCN1CCC(c2cccc(C(F)(F)F)c2)CC1)c1cccc(Cl)c1)S(=O)(=O)c1ccccc1 | 2000
10 | CN(C[C@@H](CCN1CCC2(CC1)NC(=O)c1ccccc12)c1cccc(Cl)c1)S(=O)(=O)c1ccccc1 | 300
11 | CN(C[C@@H](CCN1CCC2(CC1)C[S+]([O-])c1ccccc12)c1ccc(Cl)c(Cl)c1)S(=O)(=O)c1ccc2c(c1)CCC2 (stereo partly specified) | 5900
12 | CN(C[C@@H](CCN1CCC2(CC1)C[S+]([O-])c1ccccc12)c1ccc(Cl)c(Cl)c1)S(=O)(=O)c1ccc2ccccc2c1 (stereo partly specified) | 3400
13 | Cc1ccccc1N1CCN(CC[C@H](CN(C)S(=O)(=O)c2ccccc2)c2cccc(Cl)c2)CC1 | 350
14 | CN(C[C@@H](CCN1CCC2(CC1)CS(=O)(=O)c1ccccc12)c1ccc(Cl)c(Cl)c1)S(=O)(=O)c1ccccc1 | 400
15 | CN(C[C@@H](CCN1CCC2(CC1)C[S+]([O-])c1ccccc12)c1cccc(Cl)c1)S(=O)(=O)c1ccccc1 (stereo partly specified) | 700
16 | CN(C[C@@H](CCN1CCC2(CC1)C[S+]([O-])c1ccccc12)c1ccc(Cl)c(Cl)c1)S(C)(=O)=O (stereo partly specified) | 150
17 | CN(C[C@@H](CCN1CCC2(CCc3ccccc32)CC1)c1cccc(Cl)c1)S(=O)(=O)c1ccccc1 | 899
18 | CN(C[C@@H](CCN1CCC2(CC1)C[S+]([O-])c1ccccc12)c1ccc(Cl)c(Cl)c1)S(=O)(=O)C1CCCCC1 (stereo partly specified) | 50
19 | CN1C(=O)c2ccccc2C12CCN(CC[C@H](CN(C)S(=O)(=O)c1ccccc1)c1cccc(Cl)c1)CC2 | 1500
20 | CN(C[C@@H](CCN1CCC2(CC1)C[S+]([O-])c1ccccc12)c1ccc(Cl)c(Cl)c1)S(=O)(=O)c1cccc(Cl)c1 (stereo partly specified) | 1000
21 | CN(C[C@@H](CCN1CCC(Cc2ccccc2)CC1)c1cccc(Cl)c1)S(=O)(=O)c1ccccc1 | 650
22 | CCCCCCCCS(=O)(=O)N(C)C[C@@H](CCN1CCC2(CC1)C[S+]([O-])c1ccccc12)c1ccc(Cl)c(Cl)c1 (stereo partly specified) | 1800
23 | CN(C[C@@H](CCN1CCC2(CC1)C[S+]([O-])c1ccccc12)c1ccc(Cl)c(Cl)c1)S(=O)(=O)c1cn(C)cn1 (stereo partly specified) | 1000
24 | CN(C[C@@H](CCN1CCC2(CC1)C[S+]([O-])c1ccccc12)c1ccc(Cl)c(Cl)c1)S(=O)(=O)c1cccc2ccccc12 (stereo partly specified) | 2600

The remaining compounds from weak to strong by IC50, led by results:

Row | IC50 [nM] | Compound
25 | 14000 | CN(C[C@@H](CCN1CCC2(CC1)C[S+]([O-])c1ccccc12)c1ccc(Cl)c(Cl)c1)S(=O)(=O)c1cccc2cccnc12 (stereo partly specified)
26 | 10000 | CN(C[C@@H](CCN1CCC(c2ccccc2)CC1)c1cccc(Cl)c1)S(=O)(=O)c1ccccc1
27 | 8490 | CN(C[C@@H](CCN1CCC2(CC1)C[S+]([O-])c1ccccc12)c1ccc(Cl)c(Cl)c1)S(=O)(=O)c1cccnc1 (stereo partly specified)
28 | 7000 | CN(C[C@@H](CCN1CCC2(CC1)CC(=O)Nc1ccccc12)c1ccc(Cl)c(Cl)c1)S(=O)(=O)c1cccc([N+](=O)[O-])c1
29 | 4000 | CN(C[C@@H](CCN1CCC2(CC1)Cc1ccccc1O2)c1cccc(Cl)c1)S(=O)(=O)c1ccccc1
30 | 3600 | CN(C[C@@H](CCN1CCC2(CC1)C[S+]([O-])c1ccccc12)c1ccc(Cl)c(Cl)c1)S(=O)(=O)c1cccs1 (stereo partly specified)
31 | 2500 | CN(C[C@@H](CCN1CCC(c2ccc(F)cc2)CC1)c1cccc(Cl)c1)S(=O)(=O)c1ccccc1
32 | 1200 | CN(C[C@@H](CCN1CCC2(CC1)CS(=O)(=O)c1ccccc12)c1ccc(Cl)c(Cl)c1)S(=O)(=O)c1cccs1
33 | 1200 | CN(C[C@@H](CCN1CCC2(CC1)CNc1ccccc12)c1cccc(Cl)c1)S(=O)(=O)c1ccccc1
34 | 1200 | Cc1ccccc1C1CCN(CC[C@H](CN(C)S(=O)(=O)c2ccccc2)c2cccc(Cl)c2)CC1
35 | 1000 | CN(C[C@@H](CCN1CCC2(CC1)C[S+]([O-])c1ccccc12)c1ccc(Cl)c(Cl)c1)S(=O)(=O)c1ccc(-c2ccccc2)cc1 (stereo partly specified)
36 | 1000 | COc1ccccc1C1CCN(CC[C@H](CN(C)S(=O)(=O)c2ccccc2)c2cccc(Cl)c2)CC1
37 | 1000 | CN(C[C@@H](CCN1CCC2(CC1)C[S+]([O-])c1ccccc12)c1ccc(Cl)c(Cl)c1)S(=O)(=O)c1cncc2ccccc12 (stereo partly specified)
38 | 800 | CN(C[C@@H](CCN1CCC2(CC1)CS(=O)(=O)c1ccccc12)c1ccc(Cl)c(Cl)c1)S(=O)(=O)c1cccc([N+](=O)[O-])c1
39 | 700 | CN(C[C@@H](CCN1CCC2(CC1)CS(=O)(=O)c1ccccc12)c1ccc(Cl)c(Cl)c1)S(=O)(=O)c1ccc([N+](=O)[O-])cc1
40 | 600 | CN(C[C@@H](CCN1CCC2(CC1)CNC(=O)c1ccccc12)c1ccc(Cl)c(Cl)c1)S(=O)(=O)c1cccc([N+](=O)[O-])c1
41 | 450 | CN(C[C@@H](CCN1CCC2(CC1)C[S+]([O-])c1ccccc12)c1ccc(Cl)c(Cl)c1)S(=O)(=O)c1ccccc1Cl (stereo partly specified)
42 | 400 | CN(C[C@@H](CCN1CCC2(CC1)CSc1ccccc12)c1ccc(Cl)c(Cl)c1)S(=O)(=O)c1ccccc1
43 | 350 | COc1ccc(S(=O)(=O)N(C)C[C@@H](CCN2CCC3(CC2)C[S+]([O-])c2ccccc23)c2ccc(Cl)c(Cl)c2)cc1 (stereo partly specified)
44 | 250 | CN(C[C@@H](CCN1CCC(c2ccc(Cl)cc2)CC1)c1cccc(Cl)c1)S(=O)(=O)c1ccccc1
45 | 100 | CN(C[C@@H](CCN1CCC2(CC1)C[S+]([O-])c1ccccc12)c1ccc(Cl)c(Cl)c1)S(=O)(=O)Cc1ccccc1 (stereo partly specified)
46 | 50 | CN(C[C@@H](CCN1CCC(CCCc2ccccc2)CC1)c1cccc(Cl)c1)S(=O)(=O)c1ccccc1
